Results from patent publication US20090074885A1, “Reversible Hydrophobic Modification of Drugs for Improved Delivery to Cells” (Roche Madison Inc., priority 2003, published 2009).
pIC50: −log10 of the molar value. Read-outs that look alike come from different tables or passages of the source.

Experiments:
[1] = Analysis of prodrug lability (rate of hydrolysis) of PI derivatives by fluorescent spectroscopy; type: physicochemical; conditions: for Half-life: extrapolated to pure buffer (100 mol % H2O)
Description: Analysis of prodrug lability. The prodrugs were tested for their rate of hydrolysis at pH 6.0, 7.2 and 8.5 using fluorescent spectroscopy. Lability studies for C12CON-PI and RRH-PI (rapidly reversible hydrophobic-PI) derivatives were conducted on a Cary Eclipse Fluorescence Spectrophotometer (Varian Inc.).
To solutions of PI and RRH-prodrugs of PI (7.48 μM in DMSO) were added various amounts of buffer (25 μL, 50 μL, and 100 μL of 20 mM Hepes buffer) at different pH. Upon cleavage of the hydrophobic modification and regeneration of PI, the fluorescence of the solution increased (λex=493 nm, λem=647 nm, excitation and emission slit width=5 nm, and emission PMT=600V) and was assayed as a function of time (20 min).
The resulting curves were normalized for intensity and fit to an exponential equation (Origin) to determine kdetermined for each solution. The kdetermined for each compound at appropriate pH were plotted against the mol % of H2O, and the best fit line was solved for kbuffer for 100 mol % H2O. These derived kbuffer values were used to determine the half-life of the prodrug in pure buffer according to the equation t1/2=1n2/k.

[2] = tested on: Jurkat cells; test: Flow cytometry of prodrug delivery to Jurkat cells; type: cell-based, human
Description: For experiments conducted on Jurkat cells (8.0×10^5 cells/ml in media), the cells were isolated by centrifugation and resuspended in ITG at a density of 4.0×10^6 cells/ml. Exposure to the drug/prodrug was conducted by passing the cells in suspension in ITG (200 μl) through the mixing chamber. After 30 sec the cells were centrifuged and the drug solution was removed (aspirated), the cells were resuspended in complete media (2 ml) and plated in 6-well plates for imaging. Passing the cells through the mixing chamber (no drug/prodrug treatment) had no effect on cell viability when compared to cells plated without passing through the mixing chamber.
Flow cytometry was conducted on a FacsCalibur Flow Cytometer (Becton Dickinson Biosciences). Jurkat cells were isolated and treated with PI and II as previously described. After 4 min the cells were centrifuged and the drug solution was removed (aspirated) and 1 ml complete media was added to the cells. During analysis, PI was added to control cells (1 ml of 8.0×10^5 cells/ml in complete media, 1 drop of 1 mg/ml PI solution, no OS or mixing chamber) to determine normal cell senescence. Data were collected for a total of 10,000 events using Cell Quest™ (Becton Dickinson Biosciences), and analyzed with FlowJo (Tree Star Inc.) for single cell events (approximately 80% of events), and secondly for PI. For Jurkat cells treated with II, forward scatter was analogous to control cells, while side scatter increased approximately two fold. Reported data represents a histogram of PI intensity for single cell events from four independent preparations. Cells were considered PI positive at a value of 100 on the PI intensity axis of the histogram for the cell percentages described.

[3] = tested on: Hepa 1-6 (mouse hepatoma); test: WST cytotoxicity assay, Hepa 1-6; type: cell-based; conditions: for pIC50: Hepa 1-6, 4 min drug exposure, read-out: Mean IC50
Description: Antiproliferative/Cytotoxic in vitro studies on PI, RRH-PI prodrugs, melphalan, and C12PMMA-melphalan. In vitro cytotoxicity testing was conducted on Hepa 1-6 (mouse hepatoma), SK-OV-3 (human ovarian carcinoma), and MC38 (mouse colon carcinoma) cells using a tetrazolium based assay (WST, Dojindo Molecular Technologies). For the WST assay, Hepa 1-6 (2.0×10^5 cells well), SK-OV-3 (7.5×10^5 cells well), and MC38 (8.5×10^5 cells well) were seeded in 1000 μL media into 12-well plates 24 h prior to testing (starting confluency ˜50%). Following removal of media, drug/prodrug solution was added drop-wise to quadruplicate wells, using the mixing chamber. Effective drug concentrations were calculated from the amount of drug added in the total volume of OS and aqueous solution. Following 4 min of drug solution exposure, the solution was removed, and 1000 μl fresh complete media was added to each well. After the cells were incubated for 24-48 h, WST-1 (20 μl of a 5 mM solution in PBS) and N-methylphenazonium methyl sulfate (PMS, 20 μl 0.2 mM solution in PBS) were added and the cells were incubated for 1-4 h. For testing with MC38 cells, the amounts of WST-1 and PMS were doubled. Following incubation, 100 μl of sample was transferred to quadruplicate wells on a 96-well plate, and the absorbance (438 nm) values were measured on a SPECTRAmax Plus^384 microplate spectrophotometer (Molecular Devices Corporation). Data represents the mean A438 values of 16 wells with standard deviation, corrected for media contribution, and normalized against cells in media with no drug/prodrug treatment (reported as % cell viability±standard deviation).
The concentration of drug (μM) that is required for 50% inhibition in vitro is reported as the IC50. The reported values were calculated from the best fit line (Excel) for a plot of effective drug concentration against % cell viability, and include the r^2 value. The reported IC50 values for multiple RRH-PI plots are reported as IC50 (μM)±standard deviation.

[4] = cells suspended in ITG passed through mixing chamber with drug in DMSO

SMILES	k ([1]; pH 7.2)	Half-life ([1]; pH 7.2) [s]	Half-life ([1]; pH 7.2, listed as BDMODS-PI (II)) [s]	k ([1]; pH 8.5)	Half-life ([1]; pH 8.5) [s]	Half-life ([1]; pH 8.5, listed as BDMODS-PI (II)) [s]	PI positive cells (signal above 100) [2, 4] [%]	cell viability at highest concentration tested, prodrug premixed with ITG (10 min) ([3]; Hepa 1-6, 833 μM) [%]	pIC50 ([3]; WST 24 h after)	pIC50 ([3]; WST 48 h after)	PI positive cells (signal above 100) ([2]; PI in aqueous solution, no OS, no mixing chamber (control)) [%]
CCCCCCCCCCCCCCCCCC[Si](C)(C)Nc1ccc2c(c1)c(-c1ccccc1)[n+](CCC[N+](C)(CC)CC)c1cc(N[Si](C)(C)CCCCCCCCCCCCCCCCCC)ccc21.[I-].[I-] [II, 3,8-bis[((dimethyl)octadecylsilazyl)amine] 5-(3,3-diethyl-3-methylammoniumpropyl) 6-phenyl phenanthridinium diiodide]	(3.96 min^−1)	11	10.5	(1.80 min^−1)	23	23.1	99.5±0.1	108±1.3	3.55	3.48	–
CCCCCCCCCCCCNC(=O)CCC(=CCC(=O)O)C(=O)Nc1ccc2c(c1)c(-c1ccccc1)[n+](CCC[N+](C)(CC)CC)c1cc(NC(=O)C(=CCC(=O)O)CCC(=O)NCCCCCCCCCCCC)ccc21.[I-].[I-] [III, 3,8-bis-[2-(2 carboxyethylidene)-4-(dodecarbamoyl)-1-oxo-butylamine] 5-(3,3-diethyl-3-methylammoniumpropyl) 6-phenyl phenanthridinium diiodide]	(5.05 min^−1)	–	–	(1.97 min^−1)	–	–	–	–	–	–	–
CC[N+](C)(CC)CCC[n+]1c(-c2ccccc2)c2cc(N)ccc2c2ccc(N)cc21.[I-].[I-] [PI, Propidium iodide, reference compound]	–	–	–	–	–	–	8.4±0.6	–	< 2.90	< 2.77	0.3±0.1
